PubChem BioAssay AID248 (DTP/NCI, 2004)
Where “and” joins values, the source holds several entries; their conditions need not be identical. Equal entries are not always repeated. Toxic doses and inconclusive results are not listed.

System: L1210 leukemia ip in BDF1 mice, survival T/C
Assay: NCI In Vivo Anticancer Drug Screen. Data for tumor model L1210 Leukemia (intraperitoneal) in B6D2F1 (BDF1) mice
Settings: endpoint: mean survival time, higher = longer survival
How it was run: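 Transplanted-tumor mice were given test agent; controls received vehicle only. Survival readings from the two groups were divided (treated over control).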

[1] = dose: 100.0 mg/kg/injection, schedule: Q01DX001 (ip), vehicle: other
[2] = dose: 100.0 mg/kg/injection, schedule: Q04DX003 (ip), vehicle: Klucel (hydroxypropylcellulose) (HPC)
[3] = dose: 200.0 mg/kg/injection, schedule: Q01DX001 (ip), vehicle: other
[4] = dose: 200.0 mg/kg/injection, schedule: Q04DX003 (ip), vehicle: Klucel (hydroxypropylcellulose) (HPC)
[5] = dose: 100.0 mg/kg/injection, schedule: Q01DX001 (ip), vehicle: carboxymethylcellulose (CMC)
[6] = dose: 200.0 mg/kg/injection, schedule: Q01DX001 (ip), vehicle: carboxymethylcellulose (CMC)
[7] = dose: 400.0 mg/kg/injection, schedule: Q01DX001 (ip), vehicle: carboxymethylcellulose (CMC)

SMILES: O=C1c2ccccc2C(=O)N1Cc1ccc([N+](=O)[O-])cc1
- T/C [1]: 96 % of control
- T/C [2]: 103 % of control
- T/C [3]: 87 % of control
- T/C [4]: 101 % of control
- T/C (dose: 400.0 mg/kg/injection, schedule: Q01DX001 (ip), vehicle: other): 95 % of control
- T/C (dose: 400.0 mg/kg/injection, schedule: Q04DX003 (ip), vehicle: Klucel (hydroxypropylcellulose) (HPC)): 97 % of control

SMILES: CCCCCCCC/C=C\CCCCCCCCOB(OCCCCCCCC/C=C/CCCCCCCC)OCCCCCCCC/C=C/CCCCCCCC
- T/C (dose: 50.0 mg/kg/injection, schedule: Q01DX001 (ip), vehicle: carboxymethylcellulose (CMC)): 96 % of control
- T/C [5]: 105 % of control
- T/C [6]: 105 % of control
- T/C [7]: 102 % of control

SMILES: [Co+2].[N-]=Cc1ccccc1O.[N-]=Cc1ccccc1O
- T/C (dose: 25.0 mg/kg/injection, schedule: Q04DX003 (ip), vehicle: Klucel (hydroxypropylcellulose) (HPC)): 110 % of control
- T/C (dose: 50.0 mg/kg/injection, schedule: Q04DX003 (ip), vehicle: Klucel (hydroxypropylcellulose) (HPC)): 113 % of control
- T/C [2]: 99 % of control and 118 % of control

SMILES: O=C(O)C(F)(F)C(F)(F)C(F)(F)F
- T/C (dose: 100.0 mg/kg/injection, schedule: Q01DX001 (ip), vehicle: saline): 105 % of control
- T/C (dose: 200.0 mg/kg/injection, schedule: Q01DX001 (ip), vehicle: saline): 103 % of control
- T/C (dose: 400.0 mg/kg/injection, schedule: Q01DX001 (ip), vehicle: saline): 92 % of control

SMILES: CC1C(c2ccccc2)OCCN1CN1C(=O)c2ccccc2C1=O (stereo not given)
- T/C (dose: 100.0 mg/kg/injection, schedule: Q04DX002 (ip), vehicle: Klucel (hydroxypropylcellulose) (HPC)): 100 % of control
- T/C (dose: 200.0 mg/kg/injection, schedule: Q04DX002 (ip), vehicle: Klucel (hydroxypropylcellulose) (HPC)): 104 % of control
- T/C (dose: 400.0 mg/kg/injection, schedule: Q04DX002 (ip), vehicle: Klucel (hydroxypropylcellulose) (HPC)): 104 % of control

SMILES: CCSC1C(OC(C)=O)OC(C(COC(C)=O)OC(C)=O)C1OC(C)=O (stereo not given)
- T/C (dose: 100.0 mg/kg/injection, schedule: Q04DX003 (ip), vehicle: other): 96 % of control
- T/C (dose: 200.0 mg/kg/injection, schedule: Q04DX003 (ip), vehicle: other): 96 % of control
- T/C (dose: 400.0 mg/kg/injection, schedule: Q04DX003 (ip), vehicle: other): 96 % of control

SMILES: COc1ccc(COC2C(O)C(CO)OC2n2cnc3c(N)ncnc32)cc1 (stereo not given)
- T/C (dose: 100.0 mg/kg/injection, schedule: Q01DX005 (ip), vehicle: saline): 92 % of control
- T/C (dose: 200.0 mg/kg/injection, schedule: Q01DX005 (ip), vehicle: saline): 94 % of control

SMILES: c1ccc(CSc2ncnc3nncnc23)cc1
- T/C (dose: 5.0 mg/kg/injection, schedule: Q01DX001 (ip), vehicle: other): 104 % of control
- T/C (dose: 10.0 mg/kg/injection, schedule: Q01DX001 (ip), vehicle: other): 95 % of control
- T/C (dose: 20.0 mg/kg/injection, schedule: Q01DX001 (ip), vehicle: other): 110 % of control
- T/C (dose: 40.0 mg/kg/injection, schedule: Q01DX001 (ip), vehicle: other): 101 % of control
- T/C (dose: 80.0 mg/kg/injection, schedule: Q01DX001 (ip), vehicle: other): 98 % of control
- T/C [1]: 89 % of control
- T/C [3]: 101 % of control

SMILES: COc1ccc2ccccc2c1Br
- T/C [5]: 98 % of control
- T/C [6]: 98 % of control
- T/C [7]: 98 % of control

SMILES: O=C(CI)Nc1ccc(NC(=O)CI)cc1
- T/C [2]: 90 % of control
- T/C [4]: 95 % of control

SMILES: O=C(O)C1CCSS1 (stereo not given)
- T/C (dose: 50.0 mg/kg/injection, schedule: Q01DX009 (ip), vehicle: saline): 89 % of control
- T/C (dose: 100.0 mg/kg/injection, schedule: Q01DX009 (ip), vehicle: saline): 92 % of control
- T/C (dose: 100.0 mg/kg/injection, schedule: Q04DX003 (ip), vehicle: saline): 101 % of control
- T/C (dose: 200.0 mg/kg/injection, schedule: Q04DX003 (ip), vehicle: saline): 104 % of control

SMILES: C[n+]1cccc(NC(=O)c2ccc(NC(=O)c3ccc(C(=O)Nc4ccc(NC(=N)N)cc4)cc3)cc2)c1
- T/C (dose: 0.3 mg/kg/injection, schedule: Q01DX009 (ip), vehicle: saline): 118 % of control
- T/C (dose: 0.6 mg/kg/injection, schedule: Q01DX009 (ip), vehicle: saline): 123 % of control
- T/C (dose: 1.3 mg/kg/injection, schedule: Q01DX009 (ip), vehicle: saline): 155 % of control
- T/C (dose: 2.0 mg/kg/injection, schedule: Q01DX009 (ip), vehicle: saline): 221 % of control
- T/C (dose: 3.0 mg/kg/injection, schedule: Q01DX009 (ip), vehicle: saline): 294 % of control
- T/C (dose: 5.0 mg/kg/injection, schedule: Q01DX001 (ip), vehicle: saline): 119 % of control and 124 % of control
- T/C (dose: 5.0 mg/kg/injection, schedule: Q01DX009 (ip), vehicle: saline): 193 % of control
- T/C (dose: 15.0 mg/kg/injection, schedule: Q01DX009 (ip), vehicle: saline): 123 % of control
- T/C (dose: 20.0 mg/kg/injection, schedule: Q01DX001 (ip), vehicle: saline): 178 % of control
- T/C (dose: 40.0 mg/kg/injection, schedule: Q01DX001 (ip), vehicle: saline): 201 % of control and 249 % of control
